Test system: Aspc-1 cells
Assay: Viability of pancreatic cancerous 3D organoids in liquid pearls (Calcein-AM / propidium iodide, Celigo image cytometry)
Type: cell-based, human
Details: AsPC-1 organoids in liquid pearls; Gemcitabine 80 μM
Protocol: FIG. 4. Effects of an ethanolic plant extract on 3D cultured cells viability. Pancreatic cancer cells seeded at 10^5 cells/mL were injected and grown in liquid pearls at a volume of 150 μL for 24 hours, then exposed to ethanolic extract #138-10D (80 μg/ml), vehicle or Gemcitabine (80 μM). After 24 hours of incubation, the cells were labeled (Calcein-AM=green-living cells and propidium iodide=red-dead cells). The composite image of the two channels was analyzed by imaging cytometry.
In a first step, medium filling the pearls is prepared using DMEMhigh glucose complete medium supplemented by 1.2% of methylcellulose solution (MC) at a ratio of 4 to 1. For spheroid generation, 150 μL of pearls medium were dispensed onto fumed silica-coated 6-well plates, then Aspc-1 cells, at a density of 10,000 cells/mL, were directly injected into each pearl. The injected pearls were then incubated in a humidified incubator at 37 C° and 5% CO2.
After 24 hours, 50 μL of complete medium containing the different extracts (final concentration 80 μg/mL) were injected into each pearl and incubated for an additional 48 hours. […] Pearls containing cancerous organoids were finally analyzed on Celigo image cytometer (Cyntellect Inc, San Diego, CA, USA).

Nc1ccn([C@@H]2O[C@H](CO)[C@@H](O)C2(F)F)c(=O)n1 [Gemcitabine]
activity on AsPC-1 cells (3D cultured cells viability): only active on AsPC-1 cells at a concentration of 80 μM
